{"source": "patent US20190374509A1", "about": "“Methods of Using Metamizole for Treatment of Pyrexia in Equines” (Kindred Biosciences, Inc., priority 2018, published 2019)", "test_system": "horses", "experiment": "Margin of safety study, IV three times daily for 9 days: clinical pathology (serum chemistry, hematology, urinalysis), body weight, physical examination", "assay_type": "in vivo", "experimental": "A study was conducted to evaluate the margin of safety of metamizole when administered intravenously to horses for 9 days at doses of 0 mg/kg (0×), 30 mg/kg (1×), 60 mg/kg (2×), and 90 mg/kg (3×) of body weight three times daily (TID), every 8 hours±30 min.\nThis was a prospective, blinded, randomized, placebo-controlled, parallel-group laboratory study in research horses. Thirty-two horses were enrolled in the study (Table 1).\nTreatment phase involved administration of the investigational drug or placebo. The investigational drug was a sterile injectable formulation of dipyrone (Zimeta™, Corden Pharma, Caponago, Italy) (500 mg/mL) in 100 mL glass bottles. The placebo was sterile injectable saline (Nova-Tech Inc, Grand Island, NE) (0.9% sodium chloride) in 500 mL plastic bottles labeled for veterinary use. Dipyrone treatment groups were 30 mg/kg (1×), 60 mg/kg (2×), and 90 mg/kg (3×). Placebo treatment group was saline administered at a volume to match the 3× dipyrone group (0×). The dose was calculated based on body weight and administered three times daily for nine consecutive days. Due to the large volume of injection at the higher dose groups, treatment was administered via indwelling intravenous (IV) catheters. Intravenous catheters were placed using standard techniques. Horses were sedated with xylazine (AnaSed® LA, VetOne, MWI, Boise, Id.) and the skin was desensitized with subcutaneous injection of lidocaine (VetOne, MWI, Boise, Id.). Intravenous catheters were replaced at the discretion of the study director and were maintained with heparinized saline flush prior to and following dose administration.\nRandomization occurred on Study Day −1. […] .\nAll statistical analyses were performed using SAS, version 9.4 (SAS Institute, Cary, N.C.). The individual horse was the experimental unit in the statistical analysis. For statistical modeling, all main effects, interaction terms, and pairwise comparisons of the active groups (dipyrone) with the placebo group were assessed at the two-sided 0.10 significance level (unadjusted) with the exception of the three-way interaction, which was assessed at the two-sided 0.05 significance level (unadjusted).\nFor continuous endpoints with repeated post-treatment measurements (serum chemistry, coagulation, hematology, urinalysis, body weight, body temperature, heart rate and respiratory rate), repeated measurement analysis of covariance (SAS MIXED procedure RMANCOVA) was used to evaluate a model including treatment, time, sex, treatment by sex interaction, treatment by time interaction, and treatment by time by sex three-way interaction as fixed effects. In addition, baseline values were included as a covariate and remained in the model regardless of its significance. Baseline values were defined as the values prior to and nearest to the first dosing.", "key": {"[1]": {"conditions": "1X, 30 mg/kg IV every 8 hours, Day 4"}, "[2]": {"conditions": "1X, 30 mg/kg IV every 8 hours, Day 8"}, "[3]": {"conditions": "1X, 30 mg/kg IV every 8 hours, Mares"}, "[4]": {"conditions": "2X, 60 mg/kg IV every 8 hours, Day 4"}, "[5]": {"conditions": "2X, 60 mg/kg IV every 8 hours, Day 8"}, "[6]": {"conditions": "2X, 60 mg/kg IV every 8 hours, Mares"}, "[7]": {"conditions": "3X, 90 mg/kg IV every 8 hours, Day 4"}, "[8]": {"conditions": "3X, 90 mg/kg IV every 8 hours, Day 8"}, "[9]": {"conditions": "3X, 90 mg/kg IV every 8 hours, Mares"}}, "data": [{"compound": "Cc1c(N(C)CS(=O)(=O)O)c(=O)n(-c2ccccc2)n1C", "note": "[dipyrone, [(2,3-dihydro-1,5-dimethyl-3-oxo-2-phenyl-1H-pyrazol-4-yl)methylamino] methanesulfonic acid]", "values": [{"measurement": "Absolute Basophil Count Day 4 Range", "setting": "[1]", "value": "0.00-0.19 cells 10^3/μL"}, {"measurement": "Cholesterol Day 4 Range", "setting": "[1]", "value": "54 to 77", "unit": "mg/dL"}, {"measurement": "Cholesterol LS Means", "setting": "[1]", "value": 65.352, "unit": "mg/dL"}, {"measurement": "Creatinine Day 4 Range", "setting": "[1]", "value": "0.9 to 2.0", "unit": "mg/dL"}, {"measurement": "Mean Corpuscular Hemoglobin Concentration Day 4 Range", "setting": "[1]", "value": "34.9 to 36.1", "unit": "g/dL"}, {"measurement": "Mean Corpuscular Volume Day 4 Range", "setting": "[1]", "value": "40.8 to 48.7", "unit": "fL"}, {"measurement": "Mean Corpuscular Volume LS Means", "setting": "[1]", "value": 46.512, "unit": "fL"}, {"measurement": "Percent Basophil Day 4 Range", "setting": "[1]", "value": "0.0-2.3%"}, {"measurement": "Total Bilirubin Day 4 Range", "setting": "[1]", "value": "0.8 to 3.4", "unit": "mg/dL"}, {"measurement": "Total Bilirubin LS Means", "setting": "[1]", "value": 2.301, "unit": "mg/dL"}, {"measurement": "Absolute Basophil Count Day 8 Range", "setting": "[2]", "value": "0.00-0.52 cells 10^3/μL"}, {"measurement": "Cholesterol Day 8 Range", "setting": "[2]", "value": "64 to 87", "unit": "mg/dL"}, {"measurement": "Creatinine Day 8 Range", "setting": "[2]", "value": "0.6 to 1.6", "unit": "mg/dL"}, {"measurement": "Creatinine LS Means", "setting": "[2]", "value": 1.118, "unit": "mg/dL"}, {"measurement": "Mean Corpuscular Hemoglobin Concentration Day 8 Range", "setting": "[2]", "value": "34.1 to 39.4", "unit": "g/dL"}, {"measurement": "Mean Corpuscular Hemoglobin Concentration LS Means", "setting": "[2]", "value": 35.513, "unit": "g/dL"}, {"measurement": "Mean Corpuscular Volume Day 8 Range", "setting": "[2]", "value": "40.8 to 49.3", "unit": "fL"}, {"measurement": "Mean Corpuscular Volume LS Means", "setting": "[2]", "value": 47.000, "unit": "fL"}, {"measurement": "Percent Basophil Day 8 Range", "setting": "[2]", "value": "0.0-2.6%"}, {"measurement": "Total Bilirubin Day 8 Range", "setting": "[2]", "value": "1.7 to 4.1", "unit": "mg/dL"}, {"measurement": "Total Bilirubin LS Means", "setting": "[2]", "value": 2.914, "unit": "mg/dL"}, {"measurement": "Percent Basophil LS Means", "setting": "1X, 30 mg/kg IV every 8 hours, Geldings", "value": 0.849, "unit": "%"}, {"measurement": "Absolute Basophil Count LS Means", "setting": "[3]", "value": 0.200, "unit": "cells 10^3/μL"}, {"measurement": "Percent Basophil LS Means", "setting": "[3]", "value": 1.374, "unit": "%"}, {"measurement": "Absolute Basophil Count Day 4 Range", "setting": "[4]", "value": "0.00-0.12 cells 10^3/μL"}, {"measurement": "Cholesterol Day 4 Range", "setting": "[4]", "value": "43 to 74", "unit": "mg/dL"}, {"measurement": "Cholesterol LS Means", "setting": "[4]", "value": 56.772, "unit": "mg/dL"}, {"measurement": "Creatinine Day 4 Range", "setting": "[4]", "value": "1.1 to 2.0", "unit": "mg/dL"}, {"measurement": "Mean Corpuscular Hemoglobin Concentration Day 4 Range", "setting": "[4]", "value": "34.2 to 36.1", "unit": "g/dL"}, {"measurement": "Mean Corpuscular Volume Day 4 Range", "setting": "[4]", "value": "41.7 to 49.4", "unit": "fL"}, {"measurement": "Mean Corpuscular Volume LS Means", "setting": "[4]", "value": 46.284, "unit": "fL"}, {"measurement": "Percent Basophil Day 4 Range", "setting": "[4]", "value": "0.0-1.3%"}, {"measurement": "Total Bilirubin Day 4 Range", "setting": "[4]", "value": "1.6 to 4.0", "unit": "mg/dL"}, {"measurement": "Total Bilirubin LS Means", "setting": "[4]", "value": 2.745, "unit": "mg/dL"}, {"measurement": "Absolute Basophil Count Day 8 Range", "setting": "[5]", "value": "0.00-0.21 cells 10^3/μL"}, {"measurement": "Cholesterol Day 8 Range", "setting": "[5]", "value": "52 to 87", "unit": "mg/dL"}, {"measurement": "Creatinine Day 8 Range", "setting": "[5]", "value": "0.6 to 1.4", "unit": "mg/dL"}, {"measurement": "Creatinine LS Means", "setting": "[5]", "value": 0.958, "unit": "mg/dL"}, {"measurement": "Mean Corpuscular Hemoglobin Concentration Day 8 Range", "setting": "[5]", "value": "32.9 to 35.5", "unit": "g/dL"}, {"measurement": "Mean Corpuscular Hemoglobin Concentration LS Means", "setting": "[5]", "value": 34.080, "unit": "g/dL"}, {"measurement": "Mean Corpuscular Volume Day 8 Range", "setting": "[5]", "value": "43.2 to 50.8", "unit": "fL"}, {"measurement": "Mean Corpuscular Volume LS Means", "setting": "[5]", "value": 47.134, "unit": "fL"}, {"measurement": "Percent Basophil Day 8 Range", "setting": "[5]", "value": "0.0-2.7%"}, {"measurement": "Total Bilirubin Day 8 Range", "setting": "[5]", "value": "1.6 to 6.1", "unit": "mg/dL"}, {"measurement": "Total Bilirubin LS Means", "setting": "[5]", "value": 4.495, "unit": "mg/dL"}, {"measurement": "Percent Basophil LS Means", "setting": "2X, 60 mg/kg IV every 8 hours, Geldings", "value": 0.949, "unit": "%"}, {"measurement": "Absolute Basophil Count LS Means", "setting": "[6]", "value": 0.059, "unit": "cells 10^3/μL"}, {"measurement": "Percent Basophil LS Means", "setting": "[6]", "value": 0.520, "unit": "%"}, {"measurement": "Absolute Basophil Count Day 4 Range", "setting": "[7]", "value": "0.00-0.39 cells 10^3/μL"}, {"measurement": "Cholesterol Day 4 Range", "setting": "[7]", "value": "43 to 73", "unit": "mg/dL"}, {"measurement": "Cholesterol LS Means", "setting": "[7]", "value": 54.144, "unit": "mg/dL"}, {"measurement": "Creatinine Day 4 Range", "setting": "[7]", "value": "1.1 to 2.1", "unit": "mg/dL"}, {"measurement": "Mean Corpuscular Hemoglobin Concentration Day 4 Range", "setting": "[7]", "value": "34.3 to 36.0", "unit": "g/dL"}, {"measurement": "Mean Corpuscular Volume Day 4 Range", "setting": "[7]", "value": "43.0 to 50.4", "unit": "fL"}, {"measurement": "Mean Corpuscular Volume LS Means", "setting": "[7]", "value": 46.560, "unit": "fL"}, {"measurement": "Percent Basophil Day 4 Range", "setting": "[7]", "value": "0.0-4.0%"}, {"measurement": "Total Bilirubin Day 4 Range", "setting": "[7]", "value": "1.7 to 5.5", "unit": "mg/dL"}, {"measurement": "Total Bilirubin LS Means", "setting": "[7]", "value": 3.074, "unit": "mg/dL"}, {"measurement": "Absolute Basophil Count Day 8 Range", "setting": "[8]", "value": "0.00-0.41 cells 10^3/μL"}, {"measurement": "Cholesterol Day 8 Range", "setting": "[8]", "value": "55 to 96", "unit": "mg/dL"}, {"measurement": "Creatinine Day 8 Range", "setting": "[8]", "value": "0.7 to 1.6", "unit": "mg/dL"}, {"measurement": "Creatinine LS Means", "setting": "[8]", "value": 1.144, "unit": "mg/dL"}, {"measurement": "Mean Corpuscular Hemoglobin Concentration Day 8 Range", "setting": "[8]", "value": "33.1 to 34.5", "unit": "g/dL"}, {"measurement": "Mean Corpuscular Hemoglobin Concentration LS Means", "setting": "[8]", "value": 33.899, "unit": "g/dL"}, {"measurement": "Mean Corpuscular Volume Day 8 Range", "setting": "[8]", "value": "43.8 to 51.3", "unit": "fL"}, {"measurement": "Mean Corpuscular Volume LS Means", "setting": "[8]", "value": 47.708, "unit": "fL"}, {"measurement": "Percent Basophil Day 8 Range", "setting": "[8]", "value": "0.0-2.1%"}, {"measurement": "Total Bilirubin Day 8 Range", "setting": "[8]", "value": "2.8 to 6.2", "unit": "mg/dL"}, {"measurement": "Total Bilirubin LS Means", "setting": "[8]", "value": 4.579, "unit": "mg/dL"}, {"measurement": "Percent Basophil LS Means", "setting": "3X, 90 mg/kg IV every 8 hours, Geldings", "value": 0.924, "unit": "%"}, {"measurement": "Absolute Basophil Count LS Means", "setting": "[9]", "value": 0.188, "unit": "cells 10^3/μL"}, {"measurement": "Percent Basophil LS Means", "setting": "[9]", "value": 1.731, "unit": "%"}, {"measurement": "Urinalysis, body weights, and physical examination parameters", "setting": "30, 60, 90 mg/kg IV every 8 hours for 9 days vs placebo", "value": "No significant differences"}]}]}
